# Test results published in patent publication US11466047B2, “Cyclic di-nucleotide compounds as sting agonists” (Merck Sharp & Dohme Corp., priority 2017, dated 2022).
# Like-named read-outs stand apart in the source and are kept apart here.
# Legend:
# full-length WT STING = full-length WT STING (Homo sapiens (Human), UniProt Q86WV6, H232R); assay: 3H-cGAMP filtration binding assay (WT STING); details: WT STING membrane
# Procedure: The ability of compounds to bind STING is quantified by their ability to compete with tritiated cGAMP ligand for human STING receptor membrane using a radioactive filter-binding assay. The binding assay employs STING receptor obtained from Trichoplusia ni cell membranes (T.ni; Expression Systems, cat #94-002F, overexpressing full-length WT STING and tritiated cGAMP ligand.
# The basic WT STING filtration assay protocol is as follows:
# 16 nM of [^3H] c-GAMP ligand was prepared by diluting into assay buffer, and 50 uL of this working stock was manually added to each well of the assay plate. After ligand addition, 2 uL of either titrated test compound, DMSO control (Sigma #276855), or cold cGAMP control was added to the appropriate wells using a BIOMEK FX. The serially titrated compound was prepared on a Hamilton STARPlus CORE in a 96-well plate (Greiner, #651201) using a 1:3 ten-point dose response format. Following compound addition, a 2.2 ug/ml working concentration of STING membrane (SEQ. ID. No. 3) was prepared by diluting concentrated membrane into assay buffer (1×PBS; Invitrogen #SH30028.02) and douncing 7× using a manual tissue homogenizer (Wheaton, #357546). 148 uL of this prepared membrane was then manually added to each well of a 96-well deep-well polypropylene plate (Fisher Scientific, #12-566-121). Compound, ligand, and membrane then incubated for 60 min at RT before the contents of each assay plate were filtered through a 96-well GF/B filter plate (PerkinElmer, #6005250) using a TOMTEC MACH III Cell Harvester equipped with 20 mM HEPES buffer (Fisher Scientific, #BP299500). The filter plates were then dried at 55° C. for 30 min using a pressurized VWR oven before 30 uL of ULTIMA GOLD F scintillate was added to each well. Tritium levels for each reaction well were then measured using a PerkinElmer TopCount plate reader.
# After normalization to controls, the percent activity for each compound concentration was calculated by measuring the amount of remaining radioactivity. The plot of percent activity versus the log of compound concentration was fit with a 4-parameter dose response equation to calculate EC50 values.
# THP1 cells = assay: IFN-β secretion in THP1 cell culture (5 h); type: cell-based, human; details: 30 μM compound, relative to 2′3′-cGAMP at 30 μM; for activation at 30 µM: Homo sapiens, THP-1, 5 h, read-out: % Effect at 30 μM relative to 2′3′-cGAMP
# Procedure: The ability of compounds to stimulate the secretion of interferon-beta from THP1 cells was measured using a human IFN-β AlphaLISA kit (Perkin Elmer, Cat. No. AL265F). The basic protocol is as follows:
# A Labcyte Echo 550 acoustic dispenser was used to transfer 120 nL of compound dissolved in DMSO into the wells of an empty, sterile 384-well microplate, (Corning, Cat. No. 3712). THP1 cells (American Type Culture Collection, Cat. No. TIB202) previously frozen in Recovery Medium (Life Technologies, Cat. No. 12648-010) were thawed and immediately diluted 10-fold into 37° C. assay medium (RPMI 1640+L-Glutamine & phenol red, Life Technologies, Cat. No. 11875-085; 0.5% heat inactivated fetal bovine serum, Sigma Aldrich, Cat. No. F4135; 1 mM Sodium Pyruvate, Life Technologies, Cat. No. 11360-070; lx non-essential amino acids; Life Technologies, Cat. No. 11140-050). The cell viability and count was ascertained using a Beckman Coulter V-Cell XR cell counter. The cell suspension was centrifuged at 200×g for 5 min at RT. Cells were resuspended to a density of 0.8×10^6/mL in 37° C. assay medium. Subsequent liquid transfers were performed using either a Matrix electronic multichannel pipette or an Agilent Bravo Automated Liquid Handling Platform.
# The assay was started by dispensing 40 μL of the previously prepared cell suspension into the wells of the plate containing compounds. After 5 h incubation at 37° C., 5% CO2 in a humidified atmosphere, the plate of cells and compounds was centrifuged at 200×g for 5 min at RT. From each well, 5 μL of supernatant was transferred into corresponding wells of a white 384-well plate (Perkin Elmer, Cat. No. 6005620). To these supernatant-containing wells was added 10 μL of 5× Anti-Analyte Acceptor beads (50 μg/mL of AlphaLISA HiBlock Buffer) and incubated for 30 min at RT while shaking on an orbital plate shaker. To each well was added 10 μL of 5× Biotinylated Antibody Anti-analyte (5 nM in AlphaLISA HiBlock Buffer) and incubated on an orbital plate shaker for 60 min at RT or overnight at 4° C. To each well was added 25 μL of 2×SA-Donor beads (80 μg/mL in AlphaLISA HiBlock Buffer) and incubated for 30-45 min at RT in the dark while shaking on an orbital plate shaker. The plate was then read on a Perkin Elmer Envision (λex=680 nm, λem=570 nm). The percent effect of the AlphaLISA signal at each compound concentration was calculated based on 30 uM cGAMP positive controls and 0.3% DMSO negative controls. The plot of percent effect versus the log of compound concentration was fit with a 4-parameter concentration response equation to calculate EC50 values. The test compounds were tested at concentrations 30000, 10000, 3333, 1111, 370.4, 123.4, 41.2, 13.7, 4.6, and 1.5 nM with 0.3% residual DMSO. The control compound, cGAMP was tested at concentrations 100000, 33333, 11111, 3704, 1235, 412, 137, 46, and 15 nM with 0.3% residual DMSO.
# Compounds of the disclosure were evaluated for IFN-β secretion in THP1 cell culture as described above. The following table tabulates the biological data for these compounds as percent activation relative to 2′3′-cGAMP at the 30 μM concentration.
# [1] = EC50, competition with tritiated cGAMP ligand
# [2] = competition with tritiated cGAMP ligand, read-out: EC50
# Chain of full-length WT STING (Q86WV6 whole entry, looked up, stated change not applied): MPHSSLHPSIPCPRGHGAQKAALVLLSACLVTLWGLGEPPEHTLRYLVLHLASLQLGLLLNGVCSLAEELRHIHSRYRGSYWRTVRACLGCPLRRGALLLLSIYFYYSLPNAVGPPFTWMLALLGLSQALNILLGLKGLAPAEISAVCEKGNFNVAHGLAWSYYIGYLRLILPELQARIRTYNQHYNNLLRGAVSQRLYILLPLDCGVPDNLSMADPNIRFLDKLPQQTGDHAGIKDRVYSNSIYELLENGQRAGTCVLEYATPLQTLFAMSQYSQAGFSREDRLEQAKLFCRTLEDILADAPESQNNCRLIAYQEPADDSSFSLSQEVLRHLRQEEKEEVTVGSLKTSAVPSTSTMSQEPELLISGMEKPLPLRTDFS
SMILES,EC50 (full-length WT STING; [1]) [nM],% Effect at 30 μM relative to 2′3′-cGAMP (THP1 cells) [%],activation at 30 µM (THP1 cells) [%],EC50 (full-length WT STING; [2]) [nM]
"Nc1nc2c(ncn2[C@@H]2O[C@@H]3COP(O)(=S)O[C@H]4C[C@H](n5cnc6c(N)ncnc65)O[C@@H]4COP(=S)(S)O[C@@H]2C3)c(=O)[nH]1 (single isomer, unassigned) [Example 11]",34,51,–,–
"Nc1nc2c(ncn2[C@@H]2O[C@@H]3COP(=O)(O)O[C@H]4[C@H](F)[C@H](n5cnc6c(N)ncnc65)O[C@@H]4COP(=S)(S)O[C@@H]2[C@@H]3F)c(=O)[nH]1 (stereo partly drawn) [Example 22, 2-amino-9-[(5R,7R,8S,12aR,14R,15S,15aR,16R)-14-(6-amino-9H-purin-9-yl)-15,16-difluoro-2-hydroxy-2-oxido-10-sulfanyl-10-sulfidooctahydro-12H-5,8-methanofuro[3,2-l][1,3,6,9,11,2,10]pentaoxadiphosphacyclotetradecin-7-yl]-1,9-dihydro-6H-purin-6-one]",517,–,117,–
"Nc1nc2c(ncn2[C@@H]2O[C@@H]3COP(=S)(S)O[C@H]4[C@H](F)[C@H](n5cnc6c(N)ncnc65)O[C@@H]4COP(=O)(O)O[C@@H]2[C@@H]3F)c(=O)[nH]1 (stereo partly drawn) [Example 19, 2-amino-9-[(5R,7R,8S,12aR,14R,15S, 15aR,16R)-14-(6-amino-9H-purin-9-yl)-15,16-difluoro-10-hydroxy-10-oxido-2-sulfanyl-2-sulfidooctahydro-12H-5,8-methanofuro[3,2-1][1,3,6,9,11,2,10]pentaoxadiphosphacyclotetradecin-7-yl]-1,9-dihydro-6H-purin-6-one]",–,–,250,1
"Nc1nc2c(ncn2[C@@H]2O[C@@H]3COP(O)(=S)O[C@H]4C[C@H](n5cnc6c(N)ncnc65)O[C@@H]4COP(=S)(S)O[C@@H]2C3)c(=O)[nH]1 (single isomer, unassigned) [Example 10]",6,91,–,–
"Nc1nc2c(ncn2[C@@H]2O[C@@H]3COP(=S)(S)O[C@H]4C[C@H](n5cnc6c(=O)[nH]cnc65)O[C@@H]4COP(O)(=S)O[C@@H]2C3)c(=O)[nH]1 (single isomer, unassigned) [Example 24]",–,168,–,19
"Nc1nc2c(ncn2[C@@H]2O[C@@H]3COP(O)(=S)O[C@H]4[C@H](F)[C@H](n5cnc6c(N)ncnc65)O[C@@H]4COP(=S)(S)O[C@@H]2[C@@H]3F)c(=O)[nH]1 (single isomer, unassigned) [Example 12]",–,116,–,171
"Nc1nc2c(ncn2[C@@H]2O[C@@H]3COP(O)(=S)O[C@H]4[C@H]5OC[C@]4(COP(=S)(S)O[C@@H]2[C@H]3F)O[C@H]5n2cnc3c(N)ncnc32)c(=O)[nH]1 (single isomer, unassigned) [Example 15]",–,–,357,79
"Nc1nc2c(ncn2[C@@H]2O[C@@H]3COP(O)(=S)O[C@H]4C[C@H](n5ccc6c(N)ncnc65)O[C@@H]4COP(=S)(S)O[C@@H]2C3)c(=O)[nH]1 (single isomer, unassigned) [Example 14]",–,–,422,244
"Nc1nc2c(ncn2[C@@H]2O[C@@H]3COP(=S)(S)O[C@H]4[C@H](F)[C@H](n5cnc6c(=O)[nH]cnc65)O[C@@H]4COP(O)(=S)O[C@@H]2[C@@H]3F)c(=O)[nH]1 (stereo partly drawn) [Example 27, 2-amino-9-[(5R,7R,8S,12aR,14R,15S,15aR,16R)-15,16-difluoro-10-hydroxy-14-(6-oxo-1,6-dihydro-9H-purin-9-yl)-2-sulfanyl-2,10-disulfidooctahydro-12H-5,8-methanofuro[3,2-1][1,3,6,9,11,2,10]pentaoxadiphosphacyclotetradecin-7-yl]-1,9-dihydro-6H-purin-6-one]",–,–,164,–
"Nc1nc2c(ncn2[C@@H]2O[C@@H]3COP(=O)(O)O[C@H]4C[C@H](n5cnc6c(N)ncnc65)O[C@@H]4COP(=S)(S)O[C@@H]2C3)c(=O)[nH]1 (stereo partly drawn) [Example 23, 2-amino-9-[(5S,7R,8R,12aR,14R,15aS)-14-(6-amino-9H-purin-9-yl)-2-hydroxy-2-oxido-10-sulfanyl-10-sulfidooctahydro-12H-5,8-methanofuro[3,2-1] [1,3,6,9,11,2,10]pentaoxadiphosphacyclotetradecin-7-yl]-1,9-dihydro-6H-purin-6-one]",–,–,152,69
"Nc1nc2c(ncn2[C@@H]2O[C@@H]3COP(O)(=S)O[C@H]4[C@H](F)[C@H](n5cnc6c(N)ncnc65)O[C@@H]4COP(=S)(S)O[C@@H]2[C@@H]3F)c(=O)[nH]1 (single isomer, unassigned) [Example 13]",–,95,–,223
"Nc1nc2c(ncn2[C@@H]2O[C@@H]3COP(=S)(S)O[C@H]4C[C@H](n5cnc6c(N)ncnc65)O[C@@H]4COP(O)(=S)O[C@@H]2C3)c(=O)[nH]1 (single isomer, unassigned) [Example 4]",–,146,–,< 1
"Nc1nc2c(ncn2[C@@H]2O[C@@H]3COP(O)(=S)O[C@H]4C[C@H](n5cnc6c(=O)[nH]cnc65)O[C@@H]4COP(=S)(S)O[C@@H]2C3)c(=O)[nH]1 (stereo partly drawn) [Example 26, 2-amino-9-[(5S,7R,8R,12aR,14R,15aS)-2-hydroxy-14-(6-oxo-1,6-dihydro-9H-purin-9-yl)-10-sulfanyl-2,10-disulfidooctahydro-12H-5,8-methanofuro[3,2-1][1,3,6,9,11,2,10]pentaoxadiphosphacyclotetradecin-7-yl]-1,9-dihydro-6H-purin-6-one]",–,–,75,409
"Nc1nc2c(ncn2[C@@H]2O[C@@H]3COP(=S)(S)O[C@H]4C[C@H](n5cnc6c(=O)[nH]cnc65)O[C@@H]4COP(O)(=S)O[C@@H]2C3)c(=O)[nH]1 (single isomer, unassigned) [Example 25]",–,281,–,2
